Patent publication US4645756A, “[α,ω-bis(diphenylphosphino)hydrocarbon]bis[(thiosugar)gold] and bis[(selenosugar)gold] derivatives, pharmaceutical compositions and method of use” (priority 1985, dated 1987)
“And” between values parts separate entries of the source, which are not always exact repeats. Equal entries are not always repeated.

Assays:
[1] = test system: mammary adenocarcinoma 16/c; settings: general statement on the positive control; cited from earlier work
ADJ-PC6 Plasmacytoma = ADJ-PC6 Plasmacytoma implanted sc in BALB/c female mice; assay type: in vivo, mouse
Method: Likewise, Compound No. 1 from Table A was tested in an additional in vivo tumor model known as ADJ-PC6 Plasmacytoma. In this assay, tumor cells are carried by serial sc passage in BALB/c female mice and then collected aseptically on ca. day 21 and minced in Hank's balanced salt solution. The cells are then dispersed by homogenization in a loose-fitting teflon glass homogenizer, and cell concentration is adjusted to 4×10^6 viable ([…]) cells per ml by hemocytometer counts. A total of 0.5 ml (2×10^6 cells) is implanted sc on the right flank of BALB/c female mice in groups of 8. Treatment is given ip on Days 1-10, and tumors are measured in perpendicular diameters with a vernier caliper on Day 18. Tumor volume is calculated by multiplying length×width^2×0.5. Generally, ≥75% inhibition of tumor growth reflects significant antitumor effect.

[2] = test system: mammary adenocarcinoma 16/c; assay: mammary adenocarcinoma 16/c implanted sc in C3H mice; assay type: in vivo, mouse; settings: ip, q4D × 5
Method: Compound No. 1 from Table A was also tested in a further in vivo tumor model, mammary adenocarcinoma 16/c, a tumor model sensitive to DNA binders and alkylating agents. In this experiment, the tumor was implanted sc in C3H mice, and the drug was administered ip or iv on an intermittant treatment schedule, i.e., once on days 1, 5, 9, 13 and 17. Tumors were measured 3 weeks after implantation, and activity was assessed by degree of tumor growth inhibition.

[3] = test system: M5076 reticulum cell sarcoma; assay: ip implanted M5076 reticulum cell sarcoma in mice; assay type: in vivo, mouse; settings: mice bearing ip M5076; ip qD × 10; slash-separated figures are separate experiments
Method: Another chemosensitive tumor model is intraperitoneally (ip) implanted M5076 reticulum cell sarcoma in mice. In this system B6D2F female mice are inoculated with 0.5 ml of a 10 percent (w:v) brei of M5076 prepared from pooled subcutaneous (sc) tumors excised at about 21 days from C57B1/6 donors. Drugs are administered ip. Daily treatement is begun 24 hours after implantation and is continued for ten days. The treatment regimen for M5076 is more prolonged than for P388 because of the slower growth rate and longer control survival time of the M5076 tumor. The antitumor activity of Compounds No. 1 and No. 2 of Table A in the M5076 reticulum cell sarcoma tumor model is set forth in Table 2.

B16 melanoma = assay: in vivo ip B16 melanoma in mice; parameters: species or system mouse
Method: In this system, groups of eight B6D2F1 mice are inoculated ip with 0.5 ml of a 10% (w:v) brei of B16 melanoma prepared from pooled sc tumors excised at 14-21 days from […] donor mice. Daily treatment is begun 24 hours after tumor implantation and is continued daily for ten (10) days. The route of drug administration is ip. The mice are monitored daily for survival for sixty (60) days. Antitumor activity is assessed by prolongation of median survival time. An ILS of ≥25% indicates activity in this tumor model.
Similarly, in another additional in vivo tumor model, namely B16 melanoma in mice, Compound No. 1 from Table A, administered ip in a dosage schedule of 8, 4, 2, 1 and 0.5 mg/kg produced an average increase in lifespan (ILS) of 32% at a maximally tolerated dose (MTD) of 3.4 μM/kg.

B16 melanoma cells = assay: B16 mouse melanoma cell clonogenic cytotoxicity assay in vitro, two hour exposure; assay type: cell-based; settings: B16 cloning efficiency; 2 hour exposure; 10% fetal calf serum
Method: The B16 mouse melanoma cell assay measures the ability of a compound to inhibit the clonogenic capacity of cells in vitro following a two hour exposure to the compound.
B16 melanoma (highly metastatic subline, F10) are used and maintained as monolayer cultures in Minimal Essential Media (Grand Island Biological Co., Grand Island, N.Y.) supplemented with 10% calf serum, 1% antibiotics in a 5% CO2 humidified incubator at 37° C. Asynchronous populations of cells are harvested and replated to 5000 cells/plate in sterile 60 mm×15 mm petri plates. Plates are incubated overnight to allow attachment of the cells to the plate. Cells are treated with the compound to be evaluated under sterile conditions, allowed to react for 2 hours followed by aspiration of medium. Plates are washed one time with 5 ml of phosphate buffered saline (PBS), followed by the addition of 5 ml of fresh media. […] Viability is measured by the ability of a cell to form a colony of greater than 50 cells. […] Plates are dried and counted with a Biotran III Automatic Count Totalized (New Brunswick Scientific Co., Edison, N.J.). Mean and standard deviation of triplicate samples are determined for each drug concentration. The data are analyzed by plotting the log of the survival fraction (number of colonies in drug treated plates/number of colonies in controls) versus the drug concentration. […]

[4] = test system: HT-29 human colon carcinoma cells; assay: HT-29 human colon carcinoma cell kill in vitro, 2 hour exposure; assay type: cell-based; settings: +FCS
Method: Additionally, in another in vitro assay, Compound No. 1 effectively killed HT-29 human colon carcinoma cells, with an IC50 (+FCS) of 5 μM following a 2 hour exposure.

[5] = test system: P388 lymphocytic leukemia; assay: in vivo ip P388 leukemia mouse model; settings: for ILS relative to cisplatin / activity in the P388 leukemia assay: ip P388, in words; for ILS (Max), maximum increase in lifespan: mice bearing ip P388 leukemia, ip days 1-5, slash-separated figures are separate experiments
Text: P388 lymphocytic leukemia is currently the most widely used animal tumor model for screening for antitumor agents and for detailed evaluation of active compounds. This tumor system is widely accepted as an antitumor agent screening tool because it is sensitive to virtually all of the clinically active antineoplastic agents; quantitative and reproducible; amenable for large-scale screening; and predictive for activity in other animal tumor models.
10^6 P388 leukemia cells are inoculated ip in B6D2F1 mice. Twenty-four hours later, if the tumor inoculum proves to be free of bacterial contamination (as determined by 24 hours incubation in thioglycollate broth), animals are randomized into groups of 6 and housed in shoebox cages. […] An equal volume of saline is added; if the drug comes out of solution an equal volume of polyethoxylated castor oil is added and then saline qs to a concentration such that the desired dose is delivered in 0.5 ml. The final concentration of DMA, ethanol and polyethoxylated castor oil is 10 percent. Dilutions for lower doses are made with saline so there is a decreasing proportion of organic solvents in the vehicle with decreasing dosage. These vehicles provide soluble formulations (or suspensions). Formulations are prepared immediately prior to injection. The compound is administered ip on Days 1 through 5 (i.e. treatment is initiated 24 hrs after tumor inoculation). Each experiment includes three groups of 6 animals as untreated controls and animals treated with a positive control, cisplatin, at two dose levels. Animals are weighed as a group on Days 1, 5 and 9 and average weight change (Δwt.) is used as a reflection of toxicity. Each experiment also includes an inoculum titration--groups of 8 mice inoculated ip with 10^5 to 10° P388 leukemia cells. The titration is used to calculate cell kill achieved by treatment with drugs. Animals are monitored daily for mortality and experiments are terminated after 45 days. The endpoint is median survival time (MST) and increase in lifespan (ILS) which is the percentage of increase in MST relative to untreated controls. Untreated controls inoculated ip with 10^6 P388 leukemia cells generally survive for a median of 10 or 11 days. A drug is considered active if it produces ≥25 percent ILS.

P388 leukemia = settings: cited from earlier work
[6] = Struck et al. 1966; cited from earlier work
[7] = Dumas et al., JP 58,192,893; cited from earlier work

Compound: N.N.[Cl][Pt][Cl] [Cisplatin, cisplatin]
- inhibition of the growth of mammary adenocarcinoma 16/c [1]: complete inhibition
- tumor growth inhibition (ADJ-PC6 Plasmacytoma; positive control, in words): complete tumor growth inhibition
- Inhibition ([2]; Experiment 1, 6 mg/kg): 97%
- Mean Tumor Volume on Day 21 ([2]; Experiment 1, 6 mg/kg): 30 ± 64 mm^3
- N.P., proportion of mice without palpable tumors on Day 21 ([2]; Experiment 1, 6 mg/kg): 6/8
- Inhibition ([2]; Experiment 2, 6 mg/kg): 100% and 98%
- N.P., proportion of mice without palpable tumors on Day 21 ([2]; Experiment 2, 6 mg/kg): 8/8 and 7/8
- Inhibition ([2]; Experiment 2, 8 mg/kg): 36%
- Mean Tumor Volume on Day 21 ([2]; Experiment 2, 8 mg/kg): 711 ± 268 mm^3
- N.P., proportion of mice without palpable tumors on Day 21 ([2]; Experiment 2, 8 mg/kg): 0/7

Compound: OCC1OC([S][Au])C(O)C(O)C1O.OCC1OC([S][Au])C(O)C(O)C1O.c1ccc(P(CCP(c2ccccc2)c2ccccc2)c2ccccc2)cc1 [Compound No. 1]
- ILS (MAX), maximum increase in lifespan [3]: 45% and 65%
- average increase in lifespan (ILS) (B16 melanoma; B16 melanoma in mice, ip 8, 4, 2, 1 and 0.5 mg/kg, at MTD of 3.4 μM/kg): 32%
- ILS, maximum increase in lifespan (B16 melanoma; mice bearing ip B16 melanoma, ip qD × 10, slash-separated figures are separate experiments): 37% and 26%
- % Inhibition of tumor growth (Day 18) (ADJ-PC6 Plasmacytoma; 3 mg/kg/day × 10, ip): 50%
- MTV, mean tumor volume on Day 18 (ADJ-PC6 Plasmacytoma; 3 mg/kg/day × 10, ip): 295 ± 163 mm^3
- N.P., proportion of mice without palpable tumor on Day 18 (ADJ-PC6 Plasmacytoma; 3 mg/kg/day × 10, ip): 0/8
- % Inhibition of tumor growth (Day 18) (ADJ-PC6 Plasmacytoma; 6 mg/kg/day × 10, ip): 98%
- MTV, mean tumor volume on Day 18 (ADJ-PC6 Plasmacytoma; 6 mg/kg/day × 10, ip): 11 ± 28 mm^3
- N.P., proportion of mice without palpable tumor on Day 18 (ADJ-PC6 Plasmacytoma; 6 mg/kg/day × 10, ip): 6/7
- inhibition of ADJPC6 Plasmacytoma (ADJ-PC6 Plasmacytoma; another experiment, same dose (6 mg/kg/day × 10, ip) and schedule): 23%
- IC50 (B16 melanoma cells): 1 ± 0.2 µM
- IC50 [4]: 5 µM
- Inhibition ([2]; Experiment 1, 12 mg/kg): 96%
- Mean Tumor Volume on Day 21 ([2]; Experiment 1, 12 mg/kg): 42 ± 60 mm^3
- N.P., proportion of mice without palpable tumors on Day 21 ([2]; Experiment 1, 12 mg/kg): 3/5
- ILS relative to cisplatin [5]: comparable to the clinically useful antitumor agent cisplatin
- activity in the P388 leukemia assay [5]: particularly good activity
- ILS (Max), maximum increase in lifespan [5]: 86 ± 8%

Compound: CC(=O)OC[C@H]1O[C@@H]([S-])[C@H](OC(C)=O)[C@@H](OC(C)=O)[C@@H]1OC(C)=O.CCP(CC)CC.[Au+] [auranofin]
- activity in an intraperitoneal P388 leukemia tumor model (P388 leukemia; Mirabelli et al. 1984): respectable activity
- antitumor effects in animals bearing P388 leukemia (P388 leukemia; Simon et al. 1981, Mirabelli et al. 1985): significant antitumor effects

Compound: c1ccc(P(CCP(c2ccccc2)c2ccccc2)c2ccccc2)cc1 [ethylenebis(diphenylphosphine)]
- cytotoxic activity [6]: cytotoxic activity

Compound: CC[PH](CC)(CC)[Au][Se]C1OC(COC(C)=O)C(OC(C)=O)C(OC(C)=O)C1OC(C)=O (centres unmarked) [selenium analog of auranofin]
- antiarthritic utility [7]: antiarthritic agents

Compound: μ-1,2-Bis(Diphenylphosphino)Ethane]Bis[(1-Thio-β-D-Galactopyranosato-S)Gold(I)] [compound 4]
- ILS (MAX), maximum increase in lifespan [3]: 37%
- ILS (Max), maximum increase in lifespan [5]: 85% and 100% and 147%

Compound: μ-8 1,2-Bis(Diphenylphosphino)Ethane]Bis[(2,3,4,6-Tetra-O-Acetyl-1-Thio-α-D-Mannopyranosato-S)Gold(I)] [compound 3]
- ILS relative to cisplatin [5]: comparable to the clinically useful antitumor agent cisplatin
- activity in the P388 leukemia assay [5]: particularly good activity
- ILS (Max), maximum increase in lifespan [5]: 30% and 25%

Compound: μ-[1,2-Bis(Diphenylphosphino)Ethane]-bis [compound 8, μ-[1,2-Bis(Diphenylphosphino)Ethane]-bis [1-Thio-D-Ribofuranosato-S)Gold(I)]]
- ILS (Max), maximum increase in lifespan [5]: 50% and 56%

Compound: μ-[1,2-Bis(diphenylphosphino)ethane]-bis[1-seleno-β-D-glucopyranosato-se)gold(I)] [compound 7]
- ILS (MAX), maximum increase in lifespan [3]: 46%
- ILS (Max), maximum increase in lifespan [5]: 36% and 27%

Compound: μ-[1,2-Bis(diphenylphosphino)ethane]bis[1,thio-α-D-mannopyranosato-S)gold(I)] [compound 5]
- ILS (Max), maximum increase in lifespan [5]: 90% and 74%

Compound: μ-[1,2-Bis(diphenylphosphino)ethane]bis[2,3,4,6-tetra-O-acetyl-1-thio-β-D-glucopyranosato-S)gold(I)] [compound 2]
- ILS (MAX), maximum increase in lifespan [3]: 67%
- ILS relative to cisplatin [5]: comparable to the clinically useful antitumor agent cisplatin
- activity in the P388 leukemia assay [5]: particularly good activity
- ILS (Max), maximum increase in lifespan [5]: 95%

Compound: μ-[1,3-Bis(diphenylphosphino)propane]bis[1-thio-β-D-glucopyranosato-S)gold(I)] [compound 6]
- ILS (MAX), maximum increase in lifespan [3]: 35%
- ILS (Max), maximum increase in lifespan [5]: 28% and 56% and 41%
